Test results reported in paper PMC8652005 (2021).

Assays:
[1] = test system: add_P1 (RNA, riboswitch) GGGAAGAUAUAAUCCUAAUGAUAUGGUUUGGGAGUUUCUACCAAGAGCCUUAAACUCUUGAUUAUCUUCUCUGUCGCUUUAUCCCAAAUUUUAUAAAGAGAAGACUCAUGAAU; assay: ITC; conditions: 100 mM KCl, 10 mM MgCl2; 10 mM HEPES, pH 7.5, room temperature
[2] = test system: add_FL (RNA, riboswitch) GGGAAGAAACGCUUCAUAUAAUCCUAAUGAUAUGGUUUGGGAGUUUCUACCAAGAGCCUUAAACUCUUGAUUAUGAAGUCUGUCGCUUUAUCCCAAAUUUUAUAAAGAGAAGACUCAUGAAU; assay: ITC; conditions: 100 mM KCl, 10 mM MgCl2; 10 mM HEPES, pH 7.5, room temperature

SMILES: Nc1ncnc2[nH]cnc12
- Kd [1]: 0.0676 ± 0.00053 µM
- Kd [2]: 0.09 ± 0.00096 µM
